Reference: PubChem BioAssay (NCI)
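Assay format: 96-well plates, 48-hour exposure. At the TGI there is no net growth.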

Columns and labels:
Assay in all cases: NCI anticancer screen, dose series, 48 h
786-0 renal = system: 786-0 renal
A498 renal = system: A498 renal
A549 NSCLC = system: A549 NSCLC
ACHN renal = system: ACHN renal
BT-549 breast = system: BT-549 breast
CAKI-1 renal = system: CAKI-1 renal
CCRF-CEM leukemia = system: CCRF-CEM leukemia
COLO 205 colon = system: COLO 205 colon
DU-145 prostate = system: DU-145 prostate
EKVX NSCLC = system: EKVX NSCLC
HCC-2998 colon = system: HCC-2998 colon
HCT-116 colon = system: HCT-116 colon
HCT-15 colon = system: HCT-15 colon
HL-60(TB) leukemia = system: HL-60(TB) leukemia
HOP-62 NSCLC = system: HOP-62 NSCLC
HOP-92 NSCLC = system: HOP-92 NSCLC
HS 578T breast = system: HS 578T breast
HT29 colon = system: HT29 colon
IGROV1 ovarian = system: IGROV1 ovarian
K-562 leukemia = system: K-562 leukemia
KM12 colon = system: KM12 colon
LOX IMVI melanoma = system: LOX IMVI melanoma
M14 melanoma = system: M14 melanoma
MALME-3M melanoma = system: MALME-3M melanoma
MCF7 breast = system: MCF7 breast
MDA-MB-231 breast = system: MDA-MB-231 breast
MDA-MB-435 = system: MDA-MB-435
MDA-N = system: MDA-N
MOLT-4 leukemia = system: MOLT-4 leukemia
NCI-H226 lung = system: NCI-H226 lung
NCI-H23 lung = system: NCI-H23 lung
NCI-H460 lung = system: NCI-H460 lung
NCI-H522 lung = system: NCI-H522 lung
NCI/ADR-RES ovarian = system: NCI/ADR-RES ovarian
OVCAR-3 ovarian = system: OVCAR-3 ovarian
OVCAR-4 ovarian = system: OVCAR-4 ovarian
OVCAR-5 ovarian = system: OVCAR-5 ovarian
OVCAR-8 ovarian = system: OVCAR-8 ovarian
PC-3 prostate = system: PC-3 prostate
RPMI-8226 leukemia = system: RPMI-8226 leukemia
RXF 393 renal = system: RXF 393 renal
SF-268 CNS = system: SF-268 CNS
SF-295 CNS = system: SF-295 CNS
SF-539 CNS = system: SF-539 CNS
SK-MEL-2 melanoma = system: SK-MEL-2 melanoma
SK-MEL-28 melanoma = system: SK-MEL-28 melanoma
SK-MEL-5 melanoma = system: SK-MEL-5 melanoma
SK-OV-3 ovarian = system: SK-OV-3 ovarian
SN12C renal = system: SN12C renal
SNB-19 CNS = system: SNB-19 CNS
SR leukemia = system: SR leukemia
SW-620 colon = system: SW-620 colon
T-47D breast = system: T-47D breast
TK-10 renal = system: TK-10 renal
UACC-257 melanoma = system: UACC-257 melanoma
UACC-62 melanoma = system: UACC-62 melanoma
UO-31 renal = system: UO-31 renal
SNB-75 CNS = system: SNB-75 CNS
U251 CNS = system: U251 CNS

## Cc1cc(C)n(-c2nc(-n3nc(C)cc3C)nc(-n3nc(C)cc3C)n2)n1
786-0 renal
  TGI: > 100 µM
A498 renal
  TGI: > 100 µM
A549 NSCLC
  TGI: > 100 µM
ACHN renal
  TGI: > 100 µM
BT-549 breast
  TGI: > 100 µM
CAKI-1 renal
  TGI: > 100 µM
CCRF-CEM leukemia
  TGI: > 100 µM
COLO 205 colon
  TGI: > 100 µM
DU-145 prostate
  TGI: > 100 µM
EKVX NSCLC
  TGI: > 100 µM
HCC-2998 colon
  TGI: > 100 µM
HCT-116 colon
  TGI: > 100 µM
HCT-15 colon
  TGI: > 100 µM
HL-60(TB) leukemia
  TGI: > 100 µM
HOP-62 NSCLC
  TGI: > 100 µM
HOP-92 NSCLC
  TGI: > 100 µM
HS 578T breast
  TGI: > 100 µM
HT29 colon
  TGI: > 100 µM
IGROV1 ovarian
  TGI: > 100 µM
K-562 leukemia
  TGI: > 100 µM
KM12 colon
  TGI: > 100 µM
LOX IMVI melanoma
  TGI: > 100 µM
M14 melanoma
  TGI: > 100 µM
MALME-3M melanoma
  TGI: > 100 µM
MCF7 breast
  TGI: > 100 µM
MDA-MB-231 breast
  TGI: > 100 µM
MDA-MB-435
  TGI: > 100 µM
MDA-N
  TGI: > 100 µM
MOLT-4 leukemia
  TGI: > 100 µM
NCI-H226 lung
  TGI: > 100 µM
NCI-H23 lung
  TGI: > 100 µM
NCI-H460 lung
  TGI: > 100 µM
NCI-H522 lung
  TGI: > 100 µM
NCI/ADR-RES ovarian
  TGI: > 100 µM
OVCAR-3 ovarian
  TGI: > 100 µM
OVCAR-4 ovarian
  TGI: > 100 µM
OVCAR-5 ovarian
  TGI: > 100 µM
OVCAR-8 ovarian
  TGI: > 100 µM
PC-3 prostate
  TGI: > 100 µM
RPMI-8226 leukemia
  TGI: > 100 µM
RXF 393 renal
  TGI: > 100 µM
SF-268 CNS
  TGI: > 100 µM
SF-295 CNS
  TGI: > 100 µM
SF-539 CNS
  TGI: > 100 µM
SK-MEL-2 melanoma
  TGI: > 100 µM
SK-MEL-28 melanoma
  TGI: > 100 µM
SK-MEL-5 melanoma
  TGI: > 100 µM
SK-OV-3 ovarian
  TGI: > 100 µM
SN12C renal
  TGI: > 100 µM
SNB-19 CNS
  TGI: > 100 µM
SR leukemia
  TGI: > 100 µM
SW-620 colon
  TGI: > 100 µM
T-47D breast
  TGI: > 100 µM
TK-10 renal
  TGI: 86.5 µM
UACC-257 melanoma
  TGI: > 100 µM
UACC-62 melanoma
  TGI: > 100 µM
UO-31 renal
  TGI: > 100 µM

## Cc1c(-c2ccccc2)c(C#N)c2nnn(-c3ccc(Cl)cc3)c(=O)n12
786-0 renal
  TGI: 47.7 µM
A498 renal
  TGI: > 100 µM
A549 NSCLC
  TGI: > 100 µM
ACHN renal
  TGI: > 100 µM
BT-549 breast
  TGI: > 100 µM
CAKI-1 renal
  TGI: > 100 µM
CCRF-CEM leukemia
  TGI: > 100 µM
COLO 205 colon
  TGI: 42.3 µM
DU-145 prostate
  TGI: > 100 µM
EKVX NSCLC
  TGI: > 100 µM
HCC-2998 colon
  TGI: > 100 µM
HCT-116 colon
  TGI: > 100 µM
HCT-15 colon
  TGI: > 100 µM
HL-60(TB) leukemia
  TGI: > 100 µM
HOP-62 NSCLC
  TGI: > 100 µM
HOP-92 NSCLC
  TGI: > 100 µM
HS 578T breast
  TGI: > 100 µM
HT29 colon
  TGI: > 100 µM
IGROV1 ovarian
  TGI: > 100 µM
K-562 leukemia
  TGI: > 100 µM
KM12 colon
  TGI: > 100 µM
LOX IMVI melanoma
  TGI: > 100 µM
M14 melanoma
  TGI: > 100 µM
MALME-3M melanoma
  TGI: > 100 µM
MCF7 breast
  TGI: > 100 µM
MDA-MB-231 breast
  TGI: > 100 µM
MDA-MB-435
  TGI: > 100 µM
MDA-N
  TGI: > 100 µM
NCI-H226 lung
  TGI: > 100 µM
NCI-H23 lung
  TGI: > 100 µM
NCI-H460 lung
  TGI: > 100 µM
NCI-H522 lung
  TGI: 26.7 µM
NCI/ADR-RES ovarian
  TGI: > 100 µM
OVCAR-3 ovarian
  TGI: 52.2 µM
OVCAR-4 ovarian
  TGI: > 100 µM
OVCAR-5 ovarian
  TGI: > 100 µM
OVCAR-8 ovarian
  TGI: > 100 µM
PC-3 prostate
  TGI: 50.9 µM
RPMI-8226 leukemia
  TGI: > 100 µM
RXF 393 renal
  TGI: > 100 µM
SF-268 CNS
  TGI: > 100 µM
SF-295 CNS
  TGI: > 100 µM
SF-539 CNS
  TGI: > 100 µM
SK-MEL-2 melanoma
  TGI: > 100 µM
SK-MEL-28 melanoma
  TGI: > 100 µM
SK-MEL-5 melanoma
  TGI: 16 µM
SK-OV-3 ovarian
  TGI: > 100 µM
SN12C renal
  TGI: > 100 µM
SNB-19 CNS
  TGI: > 100 µM
SNB-75 CNS
  TGI: > 100 µM
SR leukemia
  TGI: > 100 µM
SW-620 colon
  TGI: > 100 µM
T-47D breast
  TGI: 47.4 µM
TK-10 renal
  TGI: > 100 µM
U251 CNS
  TGI: 27.3 µM
UACC-257 melanoma
  TGI: > 100 µM
UACC-62 melanoma
  TGI: > 100 µM
UO-31 renal
  TGI: > 100 µM
